Results reported in ChEMBL document CHEMBL1129742, “Development of a high specific activity sulfur-35-labeled sulfonamide radioligand that allowed the identification of a new growth hormone secretagogue receptor” (J Med Chem, 1996).
Non-standard residues stand in square brackets, D forms with d. Residues, ends and D or L forms follow the SMILES beside them.

What was measured:
[1] = species: Rattus norvegicus; assay: Effective Concentration for GH secretion from rat pituitary cell was determined; assay type: functional; settings: Pituitary gland cell
[2] = Dissociation constant was evaluated which is similar to Ki (inhibitory constant)

`CC(C)(N)CC(=O)N[C@H]1CCc2ccccc2N(Cc2ccc(-c3ccccc3-c3nn[nH]n3)cc2)C1=O` gave an EC50 [1] greater than 5000 nM.

In the case of `C[C@H](NC(=O)[C@@H](Cc1c[nH]c2ccccc12)NC(=O)[C@@H](N)Cc1c[nH]cn1)C(=O)N[C@@H](Cc1c[nH]c2ccccc12)C(=O)N[C@H](Cc1ccccc1)C(=O)N[C@@H](CCCCN)C(N)=O` (H-H[dW]AW[dF]K-NH2), the EC50 [1] is reported as 10 nM.

For `CC(C)(N)C(=O)N[C@H](COCc1ccccc1)C(=O)N1CCC2(CC1)CN(S(C)(=O)=O)c1ccccc12` [IBUTAMOREN], the EC50 [1] was […] and the Kd [2] was 0.161 nM.
